This note sets out measurements from ChEMBL document CHEMBL3822442, “Synthesis and Pharmacological Characterization of Novel Glucagon-like Peptide-2 (GLP-2) Analogues with Low Systemic Clearance” (J Med Chem, 2016).

In data set [1] the target is Glucagon-like peptide 1 receptor (Homo sapiens, UniProt P43220). In words: Agonist activity at human GLP1R expressed in HEK293 cells after 5 hrs by luciferase reporter gene assay. The format is cell-based. Background: Reporter assays use an easily measured gene product as a stand-in for the process of interest.
The target of data set [2] is T1, Glucagon-like peptide 2 receptor (Homo sapiens, UniProt O95838).
T1 sequence (O95838 whole entry): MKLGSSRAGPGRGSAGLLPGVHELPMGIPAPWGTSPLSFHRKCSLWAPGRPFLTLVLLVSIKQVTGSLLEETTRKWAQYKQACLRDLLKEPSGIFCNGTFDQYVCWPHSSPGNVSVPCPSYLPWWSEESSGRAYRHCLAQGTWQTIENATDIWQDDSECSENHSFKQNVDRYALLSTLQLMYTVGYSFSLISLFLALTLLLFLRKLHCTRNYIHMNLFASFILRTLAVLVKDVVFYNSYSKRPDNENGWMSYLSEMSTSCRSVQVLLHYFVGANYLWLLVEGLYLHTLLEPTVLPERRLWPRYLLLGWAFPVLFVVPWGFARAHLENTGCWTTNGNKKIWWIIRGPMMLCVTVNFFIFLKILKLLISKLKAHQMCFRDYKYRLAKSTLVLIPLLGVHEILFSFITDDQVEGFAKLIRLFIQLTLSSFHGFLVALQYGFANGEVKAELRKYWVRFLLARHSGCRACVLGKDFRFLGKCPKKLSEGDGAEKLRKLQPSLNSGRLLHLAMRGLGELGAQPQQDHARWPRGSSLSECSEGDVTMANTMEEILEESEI
In words: Agonist activity at human GLP2R expressed in HEK293 cells after 5 hrs by luciferase reporter gene assay. In kind it is cell-based.

Data set [3] is described as follows: Protein binding in rat plasma at 200 to 1000 ng/ml incubated for 15 mins by LC/MS/MS based ultracentrifugation method. In kind it is ADME, cell-free. The settings on record: read-out: PPB (converted).
Data set [4] in a line: Systemic clearance in Sprague-Dawley rat at 0.2 mg/kg, iv through cassette dosing measured up to 300 mins by LC/MS/MS analysis. In kind it is ADME, organism-based. The settings on record: in vivo.
Data set [5] has as its target Glucagon receptor (Homo sapiens) (UniProt P47871). In words: Agonist activity at human GCGR expressed in HEK293 cells up to 1000 nM after 5 hrs by luciferase reporter gene assay. The format is cell-based.
Another data set concerns HEK293. Description: Selectivity ratio of EC50 for human GLP1R expressed in HEK293 cells to EC50 for human GLP2R expressed in HEK293. The format is cell-based.

The source made the active and inactive calls. No cut-off for these calls is given here. Non-standard residues stand in square brackets, D forms with d. Residues, ends and D or L forms follow the SMILES beside them. ξ: configuration not given here. ξ2Thi = NC(Cc1cccs1)C(=O)O; ξNle = CCCCC(N)C(=O)O

Sequence of Glucagon receptor (Homo sapiens) (P47871 whole entry): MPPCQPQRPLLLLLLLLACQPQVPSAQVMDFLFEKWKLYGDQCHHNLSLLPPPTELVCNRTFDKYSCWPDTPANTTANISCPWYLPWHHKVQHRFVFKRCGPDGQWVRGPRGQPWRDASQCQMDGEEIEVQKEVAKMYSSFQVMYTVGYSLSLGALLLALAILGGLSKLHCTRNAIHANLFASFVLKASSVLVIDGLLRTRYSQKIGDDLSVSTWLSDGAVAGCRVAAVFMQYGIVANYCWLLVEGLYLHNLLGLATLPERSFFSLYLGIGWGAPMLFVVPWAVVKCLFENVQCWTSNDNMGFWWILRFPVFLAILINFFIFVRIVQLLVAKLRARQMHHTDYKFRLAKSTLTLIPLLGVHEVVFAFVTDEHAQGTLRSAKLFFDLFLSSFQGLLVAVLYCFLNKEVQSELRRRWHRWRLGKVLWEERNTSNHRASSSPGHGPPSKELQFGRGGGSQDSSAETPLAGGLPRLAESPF
Sequence of Glucagon-like peptide 1 receptor (P43220 whole entry): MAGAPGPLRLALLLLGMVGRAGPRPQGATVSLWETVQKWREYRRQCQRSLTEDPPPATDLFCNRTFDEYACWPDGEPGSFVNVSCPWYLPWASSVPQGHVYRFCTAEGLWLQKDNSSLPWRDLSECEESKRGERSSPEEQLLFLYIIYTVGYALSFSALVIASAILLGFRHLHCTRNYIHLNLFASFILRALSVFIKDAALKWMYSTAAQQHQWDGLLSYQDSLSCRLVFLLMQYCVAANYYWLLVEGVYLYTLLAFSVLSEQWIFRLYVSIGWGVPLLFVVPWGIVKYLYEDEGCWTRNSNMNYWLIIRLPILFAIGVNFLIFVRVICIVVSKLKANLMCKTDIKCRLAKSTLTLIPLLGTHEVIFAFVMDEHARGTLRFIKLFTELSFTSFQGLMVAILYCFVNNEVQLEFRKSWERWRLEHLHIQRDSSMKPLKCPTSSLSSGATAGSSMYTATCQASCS

The EC50 is the concentration at which the effect is half-maximal. A low value points to higher potency in that assay. `CCCC[C@H](NC(=O)[C@H](CCC(=O)O)NC(=O)[C@H](CC(=O)O)NC(=O)[C@H](CO)NC(=O)[C@H](Cc1ccccc1)NC(=O)[C@H](CO)NC(=O)CNC(=O)[C@H](CC(=O)O)NC(=O)CNC(=O)[C@@H](N)Cc1cnc[nH]1)C(=O)N[C@H](Cc1ccccc1)C(=O)N[C@H](C(=O)N[C@H](C(=O)N[C@@H](CC(C)C)C(=O)N[C@@H](CC(=O)O)C(=O)N[C@@H](CC(N)=O)C(=O)N[C@@H](CC(C)C)C(=O)N[C@@H](C)C(=O)N[C@@H](C)C(=O)N[C@@H](CCCNC(=N)N)C(=O)N[C@@H](CC(=O)O)C(=O)N[C@@H](Cc1ccccc1)C(=O)N[C@H](C(=O)N[C@@H](CC(N)=O)C(=O)N[C@@H](Cc1c[nH]c2ccccc12)C(=O)N[C@@H](CC(C)C)C(=O)N[C@H](C(=O)N[C@@H](CCC(N)=O)C(=O)N[C@H](C(=O)N[C@@H](CCCCN)C(N)=O)[C@@H](C)O)[C@@H](C)CC)[C@@H](C)CC)[C@@H](C)CC)[C@@H](C)O`: the EC50 was 120 nM in data set [1] and 0.09 nM in data set [2]. The fraction unbound at 0.25 h in data set [3] is 0.039.
As a reminder, the clearance is a measure of how efficiently the substance is removed, as volume per time. A lower clearance goes with a low capacity for elimination. With `CC[C@H](C)[C@H](NC(=O)[C@H](Cc1ccccc1)NC(=O)[C@H](CC(=O)O)NC(=O)[C@H](CCCN=C(N)N)NC(=O)[C@H](C)NC(=O)[C@H](C)NC(=O)[C@H](CC(C)C)NC(=O)[C@H](CC(N)=O)NC(=O)[C@H](CC(=O)O)NC(=O)[C@H](CC(C)C)NC(=O)[C@@H](NC(=O)[C@@H](NC(=O)[C@H](CC(N)=O)NC(=O)[C@H](CCSC)NC(=O)[C@H](CCC(=O)O)NC(=O)[C@H](CC(=O)O)NC(=O)[C@H](CO)NC(=O)[C@H](Cc1ccccc1)NC(=O)[C@H](CO)NC(=O)CNC(=O)[C@H](CC(=O)O)NC(=O)[C@H](C)NC(=O)[C@@H](N)Cc1cnc[nH]1)[C@@H](C)O)[C@@H](C)CC)C(=O)N[C@@H](CC(N)=O)C(=O)N[C@@H](Cc1c[nH]c2ccccc12)C(=O)N[C@@H](CC(C)C)C(=O)N[C@H](C(=O)N[C@@H](CCC(N)=O)C(=O)N[C@H](C(=O)N[C@@H](CCCCN)C(=O)N[C@H](C(=O)N[C@H](C(=O)N[C@@H](CC(=O)O)C(=O)O)[C@@H](C)O)[C@@H](C)CC)[C@@H](C)O)[C@@H](C)CC`, in data set [1], the EC50 stood at 520 nM. The clearance in data set [4] was 25 mL/min/kg. Moreover, the fraction unbound at 0.25 h in data set [3] was 0.338.
For `CCCCC(NC(=O)[C@H](CCC(=O)O)NC(=O)[C@H](CC(=O)O)NC(=O)[C@H](CO)NC(=O)[C@H](Cc1ccccc1)NC(=O)[C@H](CO)NC(=O)CNC(=O)[C@H](CC(=O)O)NC(=O)CNC(=O)[C@@H](N)Cc1cnc[nH]1)C(=O)N[C@@H](CC(N)=O)C(=O)N[C@H](C(=O)N[C@H](C(=O)N[C@@H](CC(C)C)C(=O)N[C@@H](CC(=O)O)C(=O)N[C@@H](Cc1ccccc1)C(=O)N[C@@H](CC(C)C)C(=O)N[C@@H](C)C(=O)N[C@@H](C)C(=O)N[C@@H](CCCNC(=N)N)C(=O)N[C@@H](CC(=O)O)C(=O)N[C@@H](Cc1ccccc1)C(=O)N[C@H](C(=O)N[C@@H](CC(N)=O)C(=O)N[C@@H](Cc1c[nH]c2ccccc12)C(=O)N[C@@H](CC(C)C)C(=O)N[C@H](C(=O)N[C@@H](CCC(N)=O)C(=O)N[C@H](C(=O)N[C@@H](CCCCN)C(N)=O)[C@@H](C)O)[C@@H](C)CC)[C@@H](C)CC)[C@@H](C)CC)[C@@H](C)O` (stereo partly drawn) (H-HGDGSFSDE[ξNle]NTILDFLAARDFINWLIQTK-NH2), the EC50 is over 1000 nM in data set [1] and 0.14 nM in data set [2]. This molecule showed a clearance in data set [4] of 5.9 mL/min/kg. The outcome in data set [5] was inactive. In the data set on HEK293, the Ratio EC50 is over 7100.
Take `CCCCC(NC(=O)[C@H](CCC(=O)O)NC(=O)[C@H](CC(=O)O)NC(=O)[C@H](CO)NC(=O)[C@H](Cc1ccccc1)NC(=O)[C@H](CO)NC(=O)CNC(=O)[C@H](CC(=O)O)NC(=O)CNC(=O)[C@@H](N)Cc1cnc[nH]1)C(=O)N[C@@H](CC(N)=O)C(=O)N[C@H](C(=O)N[C@H](C(=O)N[C@@H](CC(C)C)C(=O)N[C@@H](CC(=O)O)C(=O)N[C@@H](Cc1ccc(O)cc1)C(=O)N[C@@H](CC(C)C)C(=O)N[C@@H](C)C(=O)N[C@@H](C)C(=O)N[C@@H](CCCNC(=N)N)C(=O)N[C@@H](CC(=O)O)C(=O)N[C@@H](Cc1ccccc1)C(=O)N[C@H](C(=O)N[C@@H](CC(N)=O)C(=O)N[C@@H](Cc1c[nH]c2ccccc12)C(=O)N[C@@H](CC(C)C)C(=O)N[C@H](C(=O)N[C@@H](CCC(N)=O)C(=O)N[C@H](C(=O)N[C@@H](CCCCN)C(N)=O)[C@@H](C)O)[C@@H](C)CC)[C@@H](C)CC)[C@@H](C)CC)[C@@H](C)O` (stereo partly drawn) (H-HGDGSFSDE[ξNle]NTILDYLAARDFINWLIQTK-NH2): the EC50 in data set [1] is over 1000 nM; in data set [2], 0.11 nM. This molecule also gave a clearance in data set [4] of 1.2 mL/min/kg. In addition, the outcome in data set [5] was inactive. Moreover, the Ratio EC50 in the data set with HEK293 is over 9000.
With `CCCC[C@H](NC(=O)[C@H](CCC(=O)O)NC(=O)[C@H](CC(=O)O)NC(=O)[C@H](CO)NC(=O)[C@H](Cc1ccccc1)NC(=O)[C@H](CO)NC(=O)CNC(=O)[C@H](CC(=O)O)NC(=O)CNC(=O)[C@@H](N)Cc1cnc[nH]1)C(=O)N[C@H](Cc1ccccc1)C(=O)N[C@H](C(=O)N[C@H](C(=O)N[C@@H](CC(C)C)C(=O)N[C@@H](CC(=O)O)C(=O)N[C@@H](CC(C)C)C(=O)N[C@@H](CC(C)C)C(=O)N[C@@H](C)C(=O)N[C@@H](C)C(=O)N[C@@H](CCCNC(=N)N)C(=O)N[C@@H](CC(=O)O)C(=O)N[C@@H](Cc1ccccc1)C(=O)N[C@H](C(=O)N[C@@H](CC(N)=O)C(=O)N[C@@H](Cc1c[nH]c2ccccc12)C(=O)N[C@@H](CC(C)C)C(=O)N[C@H](C(=O)N[C@@H](CCC(N)=O)C(=O)N[C@H](C(=O)N[C@@H](CCCCN)C(N)=O)[C@@H](C)O)[C@@H](C)CC)[C@@H](C)CC)[C@@H](C)CC)[C@@H](C)O`, the values for the EC50 in data set [1] and in data set [2] were over 1000 nM and 0.08 nM, respectively. Besides, the fraction unbound at 0.25 h in data set [3] was 0.024.
In the case of `CCCCC(NC(=O)[C@H](CCC(=O)O)NC(=O)[C@H](CC(=O)O)NC(=O)[C@H](CO)NC(=O)[C@H](Cc1ccccc1)NC(=O)[C@H](CO)NC(=O)CNC(=O)[C@H](CC(=O)O)NC(=O)CNC(=O)[C@@H](N)Cc1cnc[nH]1)C(=O)N[C@@H](CC(N)=O)C(=O)N[C@H](C(=O)N[C@H](C(=O)N[C@@H](CC(C)C)C(=O)N[C@@H](CC(=O)O)C(=O)NC(Cc1cccs1)C(=O)N[C@@H](CC(C)C)C(=O)N[C@@H](C)C(=O)N[C@@H](C)C(=O)N[C@@H](CCCNC(=N)N)C(=O)N[C@@H](CC(=O)O)C(=O)N[C@@H](Cc1ccccc1)C(=O)N[C@H](C(=O)N[C@@H](CC(N)=O)C(=O)N[C@@H](Cc1c[nH]c2ccccc12)C(=O)N[C@@H](CC(C)C)C(=O)N[C@H](C(=O)N[C@@H](CCC(N)=O)C(=O)N[C@H](C(=O)N[C@@H](CCCCN)C(N)=O)[C@@H](C)O)[C@@H](C)CC)[C@@H](C)CC)[C@@H](C)CC)[C@@H](C)O` (stereo partly drawn) (H-HGDGSFSDE[ξNle]NTILD[ξ2Thi]LAARDFINWLIQTK-NH2), the EC50 in data set [1] was over 1000 nM; in data set [2] it was 0.2 nM. The clearance in data set [4] came to 6.1 mL/min/kg. Further, the result in data set [5] was inactive. In addition, the Ratio EC50 in the data set with HEK293 is over 5000.
Consider `CCCC[C@H](NC(=O)[C@H](CCC(=O)O)NC(=O)[C@H](CC(=O)O)NC(=O)[C@H](CO)NC(=O)[C@H](Cc1ccccc1)NC(=O)[C@H](CO)NC(=O)CNC(=O)[C@H](CC(=O)O)NC(=O)CNC(=O)[C@@H](N)Cc1cnc[nH]1)C(=O)N[C@H](Cc1ccccc1)C(=O)N[C@H](C(=O)N[C@H](C(=O)N[C@@H](CC(C)C)C(=O)N[C@@H](CC(=O)O)C(=O)N[C@@H](CC(C)C)C(=O)N[C@@H](CC(C)C)C(=O)N[C@@H](C)C(=O)N[C@@H](C)C(=O)N[C@@H](CCCNC(=N)N)C(=O)N[C@@H](CC(=O)O)C(=O)N[C@@H](Cc1ccccc1)C(=O)N[C@H](C(=O)N[C@@H](CC(N)=O)C(=O)N[C@@H](Cc1c[nH]c2ccccc12)C(=O)N[C@@H](CC(C)C)C(=O)N[C@H](C(=O)N[C@@H](CCC(N)=O)C(=O)N[C@H](C(=O)N[C@@H](CCCCN)C(=O)N[C@H](C(=O)N[C@H](C(=O)N[C@@H](CC(=O)O)C(=O)O)[C@@H](C)O)[C@@H](C)CC)[C@@H](C)O)[C@@H](C)CC)[C@@H](C)CC)[C@@H](C)CC)[C@@H](C)O`, for which the EC50 in data set [1] was over 1000 nM; in data set [2] it was 0.03 nM. The molecule further yielded a clearance in data set [4] of 0.28 mL/min/kg. Also, in data set [3], the fraction unbound at 0.25 h is 0.005.
